Assay results from patent EP0386920A2, “2-Hydroxy-3-thienyloxypropylamino derivatives” (IMPERIAL CHEMICAL INDUSTRIES PLC, priority 1989, dated 1990).

Key:
BAT mitochondria = test: test (a): GDP binding in brown adipose tissue (BAT) mitochondria of cold-adapted rats as a measure of thermogenic activation; format: in vivo; settings: Rattus norvegicus, sc, 1 h, sub-cutaneous (s.c), BAT removed one hour after dosing, relative to isoprenaline 1 mg/kg, read-out: ED₅₀ (dose necessary to produce 50% of the isoprenaline effect on GDP binding)
Rats [1] = test: test (c): metabolic rate (oxygen consumption) in cold-adapted rats; format: in vivo; settings: at 1mgkg⁻¹ p.o., closed-circuit oxygen consumption apparatus
Rats [2] = test: test (b): heart rate in rats adapted to a thermoneutral environment (D500 dose and selectivity index)

`COC(=O)COc1ccc(CCNCC(O)COc2ccsc2)cc1` (racemic) [Example 1, Methyl 4-[2-(2-hydroxy-3-(3-thienyloxy)propylamino)ethyl]phenoxyacetate] was tested, and the ED50 (BAT mitochondria) was 0.2 mg/kg, the “increase in metabolic rate” value (Rats [1]) was 5.2 ml O₂ min⁻¹Kg ^0.75 and the “SI (selectivity index, ratio of D₅₀₀ to ED₅₀ in test (a))” value (Rats [2]; s.c) was greater than 100.

In the case of `CC(C)NCC(O)c1ccc(O)c(O)c1` (stereo not shown) [isoprenaline, reference compound], the “SI (selectivity index, ratio of D₅₀₀ to ED₅₀ in test (a))” value (Rats [2]; route not stated) is reported as 0.06.
